Patent US11230538B2, “Herbicides” (SYNGENTA PARTICIPATIONS AG, priority 2016, dated 2022)

Experiments:
Format in all cases: in vivo
[1] = tested on: Alopecurus myosuroides (ALOMY); test: B1 Pre-emergence herbicidal activity; parameters: key: 5=total damage to plant; 0=no damage to plant; details: pre-emergence application, rate 1000 g/ha, evaluated after 13 days
Experimental: (§1) Seeds of a variety of test species were sown in standard soil in pots: Triticum aestivium (TRZAW), Avena fatua (AVEFA), Alopecurus myosuroides (ALOMY), Echinochloa crus-galli (ECHCG), Lolium perenne (LOLPE), Zea Mays (ZEAMX), Abutilon theophrasti (ABUTH), Amaranthus retroflexus (AMARE) and Setaria fabenr (SETFA). After cultivation for one day (pre-emergence) under controlled conditions in a glasshouse (at 24/16° C., day/night; 14 hours light; 65% humidity), the plants were sprayed with an aqueous spray solution derived from the formulation of the technical active ingredient in acetone I water (50:50) solution containing 0.5% Tween 20 (polyoxyethelyene sorbitan monolaurate, CAS RN 9005-64-5). The test plants were then grown in a glasshouse under controlled conditions (at 24/16° C., day/night; 14 hours light; 65% humidity) and watered twice daily. After 13 days, the test was evaluated (5=total damage to plant; 0=no damage to plant).

[2] = tested on: Triticum aestivium (TRZAW); test: B1 Pre-emergence herbicidal activity; parameters: key: 5=total damage to plant; 0=no damage to plant; details: pre-emergence application, rate 1000 g/ha, evaluated after 13 days
Experimental: as §1

Avena fatua (AVEFA) = test: B1 Pre-emergence herbicidal activity; parameters: key: 5=total damage to plant; 0=no damage to plant; details: pre-emergence application, rate 1000 g/ha, evaluated after 13 days
Experimental: as §1

Setaria fabenr (SETFA) = test: B1 Pre-emergence herbicidal activity; parameters: key to Pre-emergence herbicidal activity, SETFA (damage score 0-5): 5=total damage to plant; 0=no damage to plant; details: pre-emergence application, rate 1000 g/ha, evaluated after 13 days
Experimental: as §1

[3] = tested on: Echinochloa crus-galli (ECHCG); test: B1 Pre-emergence herbicidal activity; parameters: key to Pre-emergence herbicidal activity, ECHCG (damage score 0-5): 5=total damage to plant; 0=no damage to plant; details: pre-emergence application, rate 1000 g/ha, evaluated after 13 days
Experimental: as §1

[4] = tested on: Echinochloa crus-galli (ECHCG); test: B2 Post-emergence herbicidal activity; details: post-emergence application, rate 1000 g/ha, evaluated after 13 days
Experimental: (§2) Seeds of a variety of test species were sown in standard soil in pots: Triticum aestivium (TRZAW), Avena fatua (AVEFA), Alopecurus myosuroides (ALOMY), Echinochloa crus-galli (ECHCG), Lolium perenne (LOLPE), Zea Mays (ZEAMX), Abutilon theophrasti (ABUTH), Amaranthus retroflexus (AMARE) and Setaria fabenri (SETFA). After 8 days cultivation (post-emergence) under controlled conditions in a glasshouse (at 24/16° C., day/night; 14 hours light; 65% humidity), the plants were sprayed with an aqueous spray solution derived from the formulation of the technical active ingredient in acetone I water (50:50) solution containing 0.5% Tween 20 (polyoxyethelyene sorbitan monolaurate, CAS RN 9005-64-5). The test plants were then grown in a glasshouse under controlled conditions (at 24/16° C., day/night; 14 hours light; 65% humidity) and watered twice daily. After 13 days, the test was evaluated (5=total damage to plant; 0=no damage to plant).

[5] = tested on: Alopecurus myosuroides (ALOMY); test: B2 Post-emergence herbicidal activity; parameters: key: 5=total damage to plant; 0=no damage to plant; details: post-emergence application, rate 1000 g/ha, evaluated after 13 days
Experimental: as §2

[6] = tested on: Triticum aestivium (TRZAW); test: B2 Post-emergence herbicidal activity; parameters: key: 5=total damage to plant; 0=no damage to plant; details: post-emergence application, rate 1000 g/ha, evaluated after 13 days
Experimental: as §2

Setaria fabenri (SETFA) = test: B2 Post-emergence herbicidal activity; parameters: key: 5=total damage to plant; 0=no damage to plant; details: post-emergence application, rate 1000 g/ha, evaluated after 13 days
Experimental: as §2

Lolium perenne (LOLPE) = test: B1 Pre-emergence herbicidal activity; parameters: key to Pre-emergence herbicidal activity, LOLPE (damage score 0-5): 5=total damage to plant; 0=no damage to plant; details: pre-emergence application, rate 1000 g/ha, evaluated after 13 days
Experimental: as §1

Row | SMILES | Pre-emergence herbicidal activity, ALOMY (damage score 0-5) [1] | Pre-emergence herbicidal activity, TRAZW (damage score 0-5) [2] | Pre-emergence herbicidal activity, AVEFA (damage score 0-5) (Avena fatua (AVEFA)) | Pre-emergence herbicidal activity, SETFA (damage score 0-5) (Setaria fabenr (SETFA)) | Pre-emergence herbicidal activity, ECHCG (damage score 0-5) [3] | Post-emergence herbicidal activity, ECHCG (damage score 0-5) [4] | Post-emergence herbicidal activity, ALOMY (damage score 0-5) [5] | Post-emergence herbicidal activity, TRAZW (damage score 0-5) [6] | Post-emergence herbicidal activity, SETFA (damage score 0-5) (Setaria fabenri (SETFA)) | Pre-emergence herbicidal activity, LOLPE (damage score 0-5) (Lolium perenne (LOLPE))
1 | CCN(CC)CCCN(C(=O)C(C)C)c1ccc(-c2cncc(F)c2)nc1C(F)(F)F [Compound C69] | 0 | 0 | 1 | 5 | 3 | 3 | 0 | 0 | 4 | 0
2 | CCC(=O)N(CC(=O)N(C)C)c1ccc(-c2cncc(F)c2)nc1C(F)(F)F [Compound C71] | 0 | 1 | 1 | 5 | 4 | 4 | 0 | 0 | 5 | 1
3 | CCC(=O)N(COCC(F)(F)F)c1ccc(-c2cncc(F)c2)nc1C(F)(F)F [Compound C72] | 0 | 0 | 0 | 4 | 1 | 2 | 0 | 0 | 3 | 0
4 | CCC(=O)N(CC=C(C)C)c1ccc(-c2cncc(F)c2)nc1C(F)(F)F [Compound C73] | 0 | 0 | 2 | 5 | 4 | 4 | 0 | 0 | 5 | 0
5 | CCN(CC)CCCN(C(=O)c1ccccc1)c1ccc(-c2cncc(F)c2)nc1C(F)(F)F [Compound C74] | 1 | 0 | 0 | 3 | 1 | 2 | 0 | 0 | 3 | 1
6 | CC(C)(C)COCN(C(=O)c1ccccc1)c1ccc(-c2cncc(F)c2)nc1C(F)(F)F [Compound C76] | 0 | 0 | 0 | 5 | 1 | 3 | 0 | 1 | 4 | 0
7 | O=C(c1ccccc1)N(Cc1ccc(Cl)cc1)c1ccc(-c2cncc(F)c2)nc1C(F)(F)F [Compound C77] | 0 | 0 | 0 | 1 | 0 | 1 | 0 | 0 | 2 | 0
8 | O=C(c1ccccc1)N(Cc1cnc(Cl)s1)c1ccc(-c2cncc(F)c2)nc1C(F)(F)F [Compound C78] | 0 | 0 | 0 | 2 | 1 | 1 | 0 | 0 | 3 | 0
9 | COCC(=O)N(CC(C)C)c1ccc(-c2cncc(F)c2)nc1C(F)(F)F [Compound C79] | 0 | 0 | 1 | 5 | 3 | 3 | 0 | 0 | 3 | 2
10 | COCC(=O)N(COCC(C)(C)C)c1ccc(-c2cncc(F)c2)nc1C(F)(F)F [Compound C81] | 0 | 0 | 1 | 5 | 3 | 4 | 0 | 0 | 5 | 2
11 | COCC(=O)N(Cc1ccc(Cl)cc1)c1ccc(-c2cncc(F)c2)nc1C(F)(F)F [Compound C82] | 0 | 0 | 0 | 1 | 1 | 1 | 0 | 0 | 2 | 0
12 | COCC(=O)N(Cc1cnc(Cl)s1)c1ccc(-c2cncc(F)c2)nc1C(F)(F)F [Compound C83] | 0 | 0 | 1 | 4 | 2 | 2 | 0 | 0 | 3 | 1
13 | COCC(=O)N(CC(=O)N(C)C)c1ccc(-c2cncc(F)c2)nc1C(F)(F)F [Compound C84] | 0 | 0 | 1 | 5 | 2 | 3 | 1 | 0 | 4 | 1
